In paper PMC10349806 (Nature Communications, 2023):
“And” between values parts separate entries of the source, which are not always exact repeats. Equal values may be shown once.

What was measured:
PfCRT variant R374A = assay: CQ uptake assay, oocytes expressing R374A; assay type: cell-based, Plasmodium falciparum
Method: (§1) Site-directed mutagenesis of PfCRT^Dd2 was performed as described using the megaprimer method with overlap extension[21],[54]. The primer pairs used are listed in Supplementary Table 6. Please note that a codon-optimized and oocyte-adapted version of PfCRT^Dd2 was used[22] (Supplementary Fig. 16). The resulting DNA fragment was cloned into the SP64T expression vector and verified by sequencing.
Oocytes were obtained as described previously. Briefly, adult (>2 years old) female X. laevis frogs (NASCO) were anesthetized in a cooled solution of ethyl 3-amino benzoate methanesulfonate (0.1%, w/v), followed by a surgical removal of parts of the ovary. The ovary lobes were carefully dissected and small pieces of oocytes were incubated in Ca^2+-free ND96 buffer (96 mM NaCl, 2 mM KCl, 1 mM MgCl2 buffered with 5 mM HEPES/NaOH, pH 7.5) supplemented with collagenase D (0.1%, w/v; Roche), BSA (0.5%, w/v), and 9 mm Na2HPO4 at 18 °C for 14-16 h while gentle shaking. After incubation, the oocytes were carefully washed several times with ND96 buffer (96 mM NaCl, 2 mM KCl, 1.8 mM CaCl2, 1 mM MgCl2 buffered with 5 mM HEPES/NaOH, pH 7.5) supplemented with 100 mg l^−1 gentamycin). Defolliculated and healthy-looking stage V-VI oocytes were manually selected for RNA microinjection. The RNA was generated as following: The codon-optimized sequences of PfCRT variants were cloned into the pSP64T expression vector. After vector linearization using the restriction endonucleases BamHI or SalI (New England Biolabs), transcription was performed using the in vitro SP6 mMessage mMachine Kit (Ambion)[34]. The obtained RNA was kept at −80 °C and diluted with nuclease-free water to a concentration of 0.6 μg μl^−1. […]
Drug uptake assays were performed as described previously[21],[22],[24],[34]. […] The radioactivity of each sample was measured using a liquid scintillation analyzer Tri-Carb 4910 TR (PerkinElmer). Oocytes that were injected with water instead of RNA were analyzed in parallel, representing the uptake of a drug by diffusion and/or endogenous permeation pathways. […]

PfCRT variant E75A = biological target: T1, PfCRT variant E75A (Plasmodium falciparum, UniProt Q9N623, A220S/I356T/K76T/M74I/N326S/N75A/Q271E/R371I); assay: CQ uptake assay, oocytes expressing E75A; assay type: cell-based
T1 sequence (Q9N623 1-424 M74I/N75A/K76T/A220S/Q271E/N326S/I356T/R371I): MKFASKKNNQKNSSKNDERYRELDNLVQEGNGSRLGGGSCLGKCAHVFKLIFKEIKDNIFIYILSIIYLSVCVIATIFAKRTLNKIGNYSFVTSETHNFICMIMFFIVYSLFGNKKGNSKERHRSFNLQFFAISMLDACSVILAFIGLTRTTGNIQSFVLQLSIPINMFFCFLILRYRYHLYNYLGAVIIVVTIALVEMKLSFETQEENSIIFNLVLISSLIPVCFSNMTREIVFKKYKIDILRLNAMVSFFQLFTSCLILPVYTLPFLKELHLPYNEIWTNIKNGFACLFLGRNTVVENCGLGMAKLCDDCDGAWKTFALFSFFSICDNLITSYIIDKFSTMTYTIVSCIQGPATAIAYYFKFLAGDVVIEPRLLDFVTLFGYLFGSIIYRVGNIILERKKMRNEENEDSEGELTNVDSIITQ
Method: as §1
Oocytes were obtained as described previously. Briefly, adult (>2 years old) female X. laevis frogs (NASCO) were anesthetized in a cooled solution of ethyl 3-amino benzoate methanesulfonate (0.1%, w/v), followed by a surgical removal of parts of the ovary. The ovary lobes were carefully dissected and small pieces of oocytes were incubated in Ca^2+-free ND96 buffer (96 mM NaCl, 2 mM KCl, 1 mM MgCl2 buffered with 5 mM HEPES/NaOH, pH 7.5) supplemented with collagenase D (0.1%, w/v; Roche), BSA (0.5%, w/v), and 9 mm Na2HPO4 at 18 °C for 14-16 h while gentle shaking. After incubation, the oocytes were carefully washed several times with ND96 buffer (96 mM NaCl, 2 mM KCl, 1.8 mM CaCl2, 1 mM MgCl2 buffered with 5 mM HEPES/NaOH, pH 7.5) supplemented with 100 mg l^−1 gentamycin). Defolliculated and healthy-looking stage V-VI oocytes were manually selected for RNA microinjection. The RNA was generated as following: The codon-optimized sequences of PfCRT variants were cloned into the pSP64T expression vector. After vector linearization using the restriction endonucleases BamHI or SalI (New England Biolabs), transcription was performed using the in vitro SP6 mMessage mMachine Kit (Ambion)[34]. The obtained RNA was kept at −80 °C and diluted with nuclease-free water to a concentration of 0.6 μg μl^−1. Precision-bore glass capillary tubes (3.5-inch glass capillaries; Drummond Scientific Co.) were pulled on a vertical puller (P-87 Flaming/Brown micropipette puller, Sutter Instrument Co.), graduated, and placed on a microinjector (Nanoject II Auto-Nanoliter Injector, Drummond Scientific Co.). 50 nl of nuclease-free water alone (control oocytes) or 50 nl of 0.6 μg μl^−1 RNA were injected under stereomicroscopic control. Injected oocytes were incubated for 46–72 h at 18 °C with twice-daily buffer changes before usage in experiments.
Drug uptake assays were performed as described previously[21],[22],[24],[34]. […] The direction of radio-labeled drug transport is here from the mostly acidic extracellular solution (pH 4.5 or 6.0, as indicated) into the oocyte cytosol (pH ∼ 7.2), which corresponds to the efflux of drug from the acidic digestive vacuole (pH 5.2) into the parasite cytoplasm (pH 7.2). The topology of PfCRT in the oolemma is such that both the N- and C-terminus face the extracellular milieu[3],[22]. In the parasite, the N- and C-terminus face the lumen of the digestive vacuole. […] For determination of the amount of drug uptake for each oocyte, the reaction medium was removed and the oocytes were washed three times with 2 ml of ice-cold ND96 buffer. Each oocyte was individually transferred to a scintillation vial containing 5% sodium dodecyl sulfate (200 μl) for lysis. […] Oocytes that were injected with water instead of RNA were analyzed in parallel, representing the uptake of a drug by diffusion and/or endogenous permeation pathways. […] The specific PfCRT-mediated uptake was determined by subtracting the corresponding background value measured in water-injected oocytes from that of PfCRT-expressing oocytes. […]

CCN(CC)CCCC(C)Nc1ccnc2cc(Cl)ccc12 (centres unmarked) [CQ, chloroquine]
Activity at pH 4.5 (PfCRT variant R374A; 50 µM CQ, 1 h, mean ± SEM): 0.90 ± 0.14 pmol h-1 oocyte-1
Activity at pH 6.0 (PfCRT variant R374A; 50 µM CQ, 1 h, mean ± SEM): 3.81 ± 0.61 pmol h-1 oocyte-1
R-value (PfCRT variant R374A; CQ transport at pH 4.5 / pH 6.0): 0.23 ± 0.03
Activity at pH 4.5 (PfCRT variant E75A; E75A, 50 µM CQ, 1 h, mean ± SEM): 0.89 ± 0.11 pmol h-1 oocyte-1
R-value (PfCRT variant E75A; E75A, CQ transport at pH 4.5 / pH 6.0): 0.51 ± 0.05
E75A transport activity pH 4.5 (PfCRT variant E75A; pH 4.5, single replicates, Fig 1d left): 0.71 pmol oocyte-1 h-1 and 1.15 pmol oocyte-1 h-1 and 0.80 pmol oocyte-1 h-1
E75A R-value (PfCRT variant E75A; pH 4.5 vs pH 6.0, Fig 1d left): 0.40 and 0.62 and 0.50
E75A transport activity pH 6.0 (PfCRT variant E75A; pH 6.0, single replicates, Fig 1d left): 1.76 pmol oocyte-1 h-1 and 1.84 pmol oocyte-1 h-1 and 1.60 pmol oocyte-1 h-1
